Read-outs that look alike come from different tables or passages of the source.
How the values were obtained:
[1] = tested on: Plasmodium; set-up: method as in PMID 29243039; conditions: tested previously, cited from earlier work
[2] = tested on: hepatic stage of P. berghei; assay: In vitro activity against P. berghei hepatic stages (luciferase-expressing sporozoites in Huh-7 cells, bioluminescence); assay type: cell-based, Plasmodium berghei; set-up: INFECTION (IC50 determination): unit not given here; conditions: for IC50 / activity at 1 µM / activity at 10 µM: Plasmodium berghei; for activity at 1 µM / activity at 10 µM / INFECTION (IC50 determination): DMSO = 100; for activity at 1 µM / activity at 10 µM: read-out: INFECTION Ø screening
Summary of the method: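 Huh-7 hepatoma cells pretreated with compounds 1 h, then infected with luciferase-expressing P. berghei sporozoites (1 × 10^4/well, 1:1 ratio) and incubated at 37 °C.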

[3] = Cytotoxicity assessment in vitro (MTT assay); assay type: cell-based; conditions: human
Summary of the method: (§1)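 Human HepG2 hepatocellular carcinoma cells (passage 20–25) were treated with compound at 10 μM in triplicate for 24 h at 37 °C, 5% CO2. Viability was then measured by MTT: 3 h incubation, formazan dissolved in DMSO, absorbance read at 570 nm.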

[4] = tested on: HepG2 cells; assay: Cytotoxicity assessment in vitro (MTT assay); assay type: cell-based
Summary of the method: as §1

[5] = tested on: resistant Dd2 P. falciparum strain; conditions: cited from earlier work
[6] = tested on: chloroquine-sensitive 3D7 strain; set-up: method as in doi:10.21577/0103-5053.20190061; conditions: cited from earlier work
[7] = tested on: multidrug-resistant K1 strain; set-up: method as in doi:10.21577/0103-5053.20190061; conditions: cited from earlier work
[8] = tested on: Huh-7 cell line; assay: Huh-7 cell confluency by alamarBlue assay during hepatic-stage test; assay type: cell-based; conditions: for CELL CONFLUENCY (IC50 determination) / CELL CONFLUENCY Ø screening: human, 46 h, pH 7
Summary of the method: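 Huh-7 human hepatoma cells pre-treated with compound in infection medium 1 h before luciferase-expressing P. berghei sporozoites were added (1:1, 1 × 10^4 per well), then incubated 46 h at 37 °C, 5% CO2. Confluency assessed indirectly by alamarBlue; IC50 from nonlinear-regression fit of normalized dose-response curves.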

[9] = tested on: P. falciparum NF54 ring-stage synchronized cultures; assay: In vitro activity against P. falciparum blood stages (flow cytometry, SYBR green I); assay type: cell-based, Plasmodium falciparum; conditions: Control = 7.76333, 48 h
[10] = hepatic stage, Huh-7 cells, parasite load 48 h post-infection, read-out: IC50 P. berghei

SMILES	IC50 [5]	activity at 1 µM ([2]; Huh-7, 48 h)	activity at 10 µM ([2]; Huh-7, 48 h)	IC50 [2, 10]	CELL CONFLUENCY Ø screening ([8]; 1 µM)	CELL CONFLUENCY Ø screening ([8]; 10 µM)	Ø screening, blood stage parasite load ([9]; at 10 nM)	Ø screening, blood stage parasite load ([9]; at 500 nM)	Ø screening, blood stage parasite load ([9]; at 100 nm)	viability at 24 h, 10 µM [3]	1. screening of cytotoxic potential, HepG2 cell line ([4]; human, 24 h, 10 µM)	2. screening of cytotoxic potential, HepG2 cell line ([4]; human, 24 h, 10 µM)	3. screening of cytotoxic potential, HepG2 cell line ([4]; human, 24 h, 10 µM)	Ø screening, HepG2 (sheet Graphs) ([4]; human, 24 h, 10 µM)	also measured
COC1C=CC23c4cc5c(cc4CN(CC2O)C3C1)OCO5 (centres unmarked) [compound 29, haemanthamine]															antiplasmodial effect (words) [1]: without notable activity; antiplasmodial effect (words) ([1]; listed as haemanthamine): neither haemanthamine nor ambelline showed inhibition
COc1c2c(cc3c1OCO3)[C@]13C=C[C@H](OC)C[C@H]1N(C2)C[C@@H]3O [compound 28, ambelline]	7300 ± 300 nM														IC50 ([2]; Huh-7, 48 h, read-out: IC50 P. berghei): > 10 µM; activity against P. berghei hepatic stages ([2]; screening at 10 and 1 µM / IC50 determination): neither haemanthamine nor ambelline showed inhibition; viability at 24 h, 10 µM ([3]; c = 10 µM, 24 h, MTT, read-out: HepG2 % of cell viability compared to non-treated control (100%)): 50 ± 1%; Ø screening, HepG2 (sheet Graphs) ([4]; c = 10 μM, DMSO = 100, in %): 49.86; 1. screening of cytotoxic potential, HepG2 cell line ([4]; c = 10 μM, replicate 1, in %): 49.93; 2. screening of cytotoxic potential, HepG2 cell line ([4]; c = 10 μM, replicate 2, in %): 48.36; 3. screening of cytotoxic potential, HepG2 cell line ([4]; c = 10 μM, replicate 3, in %): 51.3
CC(=O)O[C@@H]1CC=C2CCN3Cc4cc5c(cc4[C@H]1[C@@H]23)OCO5 [compound 5, acetylcaranine]	3500 ± 300 nM														
O[C@H]1[C@H]2c3cc4c(cc3CN3CCC(=C[C@@H]1O)[C@H]23)OCO4 [compound 6, lycorine]															IC50 [6]: 2500 nM; IC50 [7]: 3100 nM
COc1cc(OC)cc(C(=O)O[C@@H]2CN3Cc4c(cc5c(c4OC)OCO5)[C@@]24C=C[C@H](OC)C[C@@H]34)c1 [28m, 11-O-(3,5-Dimethoxybenzoyl)ambelline]		4.97%	0.465%	0.048 ± 0.014 µM	75.47	66.23	7.527	6.707	7.237	87 ± 6%	83.99	94	84.39	87.46	IC50 ([2]; Huh-7, mean, unit (Table 1: µM), read-out: Antiplasmodial activity - Ø IC50): 0.0483 µM; IC50 ([2]; Huh-7, replicate 1, unit (Table 1: µM), read-out: Antiplasmodial activity - IC50 determination, 1. measurement): 0.0413 µM; IC50 ([2]; Huh-7, replicate 2, unit (Table 1: µM), read-out: Antiplasmodial activity - IC50 determination, 2. measurement): 0.0646 µM; IC50 ([2]; Huh-7, replicate 3, unit (Table 1: µM), read-out: Antiplasmodial activity - IC50 determination, 3. measurement): 0.0389 µM; INFECTION (IC50 determination) ([2]; at 0.0001 µM): 91.9843; INFECTION (IC50 determination) ([2]; at 0.001 µM): 94.6285; INFECTION (IC50 determination) ([2]; at 0.01 µM): 82.6124; INFECTION (IC50 determination) ([2]; at 0.05 µM): 46.9733; INFECTION (IC50 determination) ([2]; at 0.1 µM): 24.6613; INFECTION (IC50 determination) ([2]; at 0.5 µM): 8.963; Huh-7 cell viability [8]: cell viability was not affected at antiplasmodial-active concentrations; CELL CONFLUENCY (IC50 determination) ([8]; 0.0001 µM): 108.569; CELL CONFLUENCY (IC50 determination) ([8]; 0.001 µM): 114.348; CELL CONFLUENCY (IC50 determination) ([8]; 0.01 µM): 105.456; CELL CONFLUENCY (IC50 determination) ([8]; 0.05 µM): 107.735; CELL CONFLUENCY (IC50 determination) ([8]; 0.1 µM): 107.6; CELL CONFLUENCY (IC50 determination) ([8]; 0.5 µM): 97.6188
CCC(=O)O[C@@H]1CN2Cc3c(cc4c(c3OC)OCO4)[C@@]13C=C[C@H](OC)C[C@@H]23 [28b, 11-O-Propionylambelline]		77.6%	64.5%	> 10 µM	98.41	102.4	8.397	7.243	7.813	58 ± 4%	62.58	57.25	55.25	58.36	
